Molecular target: T1, CCR-3 receptor (Homo sapiens, UniProt P51677)
T1 construct: expressed in transfected cells; host or cells: L1.2 (murine pre-B lymphoma line) stably transfected with CCR-3
T1 sequence (P51677 1-355): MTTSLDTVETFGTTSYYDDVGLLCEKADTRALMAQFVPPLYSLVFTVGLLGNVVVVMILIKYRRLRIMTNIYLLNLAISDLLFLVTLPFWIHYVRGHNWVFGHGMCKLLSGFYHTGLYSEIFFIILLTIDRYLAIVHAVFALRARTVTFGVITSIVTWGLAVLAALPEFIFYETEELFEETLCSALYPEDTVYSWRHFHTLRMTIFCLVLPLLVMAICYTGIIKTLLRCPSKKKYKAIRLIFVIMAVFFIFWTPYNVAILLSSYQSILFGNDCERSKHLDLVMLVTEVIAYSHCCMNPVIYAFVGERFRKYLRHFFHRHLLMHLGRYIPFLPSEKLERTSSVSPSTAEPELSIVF
Experiment: CCR-3 Receptor Binding Assay - In Vitro (inhibition of 125I eotaxin binding to CCR-3 L1.2 transfectant cells)
Details: inhibition of binding of 125I-eotaxin to CCR-3 L1.2 transfectant cells, 1 hour at room temperature
Procedure: The CCR-3 antagonistic activity of the compounds of the invention was determined by their ability to inhibit the binding of ^125 I eotaxin to CCR-3 L1.2 transfectant cells (see Ponath, P. D. et al., J. Exp. Med., Vol. 183, 2437–2448, (1996)).
The assay was performed in Costar 96-well polypropylene round bottom plates. Test compounds were dissolved in DMSO and then diluted with binding buffer (50 mM HEPES, 1 mM CaCl2, 5 mM MgCl2, 0.5% bovine serum albumin (BSA), 0.02% sodium azide, pH 7.24) such that the final DMSO concentration was 2%. 25 μl of the test solution or only buffer with DMSO (control samples) was added to each well, followed by the addition of 25 μl of ^125I-eotaxin ([…]) (NEX314, New England Nuclear, Boston, Mass.) and 1.5×10^5 of the CCR-3 L1.2 transfected cells in 25 μl binding buffer. The final reaction volume was 75 μl.
After incubating the reaction mixture for 1 hour at room temperature, the reaction was terminated by filtering the reaction mixture through polyethylenimine treated Packard Unifilter GF/C filter plate (Packard, Chicago, Ill.). The filters were washed four times with ice cold wash buffer containing 10 mm HEPES and 0.5M sodium chloride (pH 7.2) and dried at 65° C. for approximately 10 minutes. 25 μl/well of Microscint-20® scintillation fluid (Packard) was added and the radioactivity retained on the filters was determined by using the Packard TopCount®.

Row | Compound | IC50 [nM]
1 | O=C(NC1CCCCC1)N[C@@H]1CCC[C@H]1N1CCC(Cc2ccc(Cl)cc2)CC1 | 398
2 | C=CCNC(=O)N[C@@H]1CCC[C@H]1N1CCC(Cc2ccc(Cl)cc2)CC1 | 499
3 | CC(C)NC(=O)N[C@@H]1CCC[C@H]1N1CCC(Cc2ccc(Cl)cc2)CC1 | 885
4 | CCCCNC(=O)N[C@@H]1CCC[C@H]1N1CCC(Cc2ccc(Cl)cc2)CC1 | 507
5 | CCOC(=O)CCNC(=O)N[C@@H]1CCC[C@H]1N1CCC(Cc2ccc(Cl)cc2)CC1 | 729
6 | O=C(N[C@@H]1CCC[C@H]1N1CCC(Cc2ccc(Cl)cc2)CC1)C1CCCCC1 [Cyclohexanecarboxylic acid {(1R,2R)-2-[4-(4-chloro-benzyl)-piperidin-1-yl]-cyclopentyl}-amide] | 2910
